Measured values as given in patent publication US6660722B2, “Therapeutical treatments” (Laboratoires Goemar S.A., priority 2001, dated 2003).

Tests used:
[1] = test system: target cells of tumor cell line YAC-1; assay: in vitro cytotoxicity assay of NK cells (mouse splenocytes pre-treated with glucan) on YAC-1 target cells, CYTOTOX 96 LDH release; type: cell-based, Balb/c mice; design: stimulated NK cells more cytotoxic than the control: concentration or dose not given beside the values; settings: for NK cell killing more active than BEI: versus BEI-stimulated cell killing; for NK cell killing more active than lentinan: versus Lentinan-stimulated NK cell killing; for stimulated NK cells more cytotoxic than the control: versus unstimulated NK cells
Procedure: In that respect, Applicants first carried out an in vitro cytotoxicity assay on spleen cells isolated from spleen of Balb/c mice by standard methods.
These tests were conducted to evaluate the effects of soluble laminarin on the cytotoxicity of NK (Natural Killer) cells of mouse and to compare these effects with those of two known glucans, ie.
The spleens isolated from the above said Balb/c mice were placed into Petri dishes containing RPMI 1640 medium obtained from Life Technologies USA, supplemented with 5% by weight of FCS (fetal calf serum from Life Technologies USA). The spleens were cut into small pieces and a suspension was made by pressing the minced spleens against the bottom of Petri dishes containing PBS (Phosphate Buffered Saline obtained from Biowhitaker Inc,8830 Biggsford Road, Walkersville, Md. 21793 USA). The thus obtained pieces of tissue were gently teased over stainless steel screens using a plunger of a 5-ml syringe. Large debris and cell clumps were removed by layering the cell suspension over 3 ml of heat-inactivated FCS for 10 minutes on ice. After elimination of erythrocytes by incubation during 10 seconds in distilled water and five washes in cold PBS, the thus obtained cells which are called splenocytes, were resuspended in PBS and counted.
The evaluation of the cytotoxicity of these cell suspensions was conducted by suing a non radioactive cytotoxicity assay marketed under the trademark CYTOTOX 96 by Promega, Madison, Wis., USA.
For these experiments, the splenocytes which are also called “effector cells” were pre-treated during 30 minutes by mixing the suspensions containing them respectively with soluble laminarin, with lentinan and with BEI glucan; the mixtures were subsequently incubated with suspensions of target cells of tumor cell line YAC-1 which is known to be relatively […] to normal inactivated N K cells.
The specificity of the assay was established by using the following three different ratios effector cells/target cells denoted ET: 10:1, 50:1 and 100:1.
For each ratio, 3 counts were carried out and experiments were repeated 3 times on 3 different days.
Controls consisted of effector cells incubated only with PBS.
More particularly, the above cell suspensions of splenocytes (effector cells) were diluted to 10^6 cells/ml and placed in individual wells of V-shaped 96-well microplates at a concentration of 0.1 ml/well.
Laminarin, lentinan and BEI glucan which occur in the form of powders, were added after dissolution in PBS at an identical concentration of 2 μg/ml in PBS and the plates were incubated for 30 minutes at 37° C. in an humidified CO2 incubator.
After incubation, the plates i.e. the incubated cells contained in the wells were washed three times with RPMI 1640 medium, and 50 μl of the suspension of target cell line YAC-1 were added in each well, respecting the above “effector cells/target cells” ratios or E T: 10:1, 50:1 and 100:1.
For each of these ratios, 3 individual wells were used, the number of target cells being respectively 10^4,2×10^3 and 1×10^3.
In addition, target cells for spontaneous release control, target cells for maximum release control and effector cells release control were introduced into appropriate wells, i.e. 3 individual wells for each concentration used.
Basically, it is necessary to obtain the values of spontaneous release from both target and effector cells, and these values serve as a background. The maximum release control serves as 100%.
After spinning the plates at 250 g for 5 minutes in a centrifuge, the plates were incubated for 4 hours at 35° C. in a humidified CO2 incubator.
For evaluating the cytotoxicity activity of the effector or N K cells, procedure was as follows, using the instructions of the manufacturer PROMEGA.
A quantity of 10 μl of lysis solution, included in the Kit, was added 45 min before the end of incubation into appropriate control wells, i.e. into wells with maximum release control. […]

[2] = test system: mouse breast cancer cell line 64 Ptas; assay: tumor growth in vivo in mice inoculated with breast cancer cells; settings: daily intraperitoneal injection during 14 days; doses 100 and 250 μg per injection (dose of the value not stated)
Procedure: The above said data have been confirmed by additional experiments where the effects of soluble laminarin on tumor growth in vivo were evaluated; yeast derived glucan BEI was used for comparison.
In these additional experiments, mice were inoculated with mouse breast cancer cell line 64 Ptas. Experimental treatment was achieved by daily intraperitoneal injection during 14 days of two different doses of soluble laminarin and BEI diluted in PBS; the said two different doses were respectively 100 and 250 μg of laminarin per injection.
At the end of the 14 days treatment, the mice were killed, tumors were removed and weighted.

[3] = oral LD 50 in rats; type: in vivo; settings: given orally in rats
Procedure: Its LD 50 is high and was determined as to be greater than 2000 mg/Kg given orally in rats; furthermore there are no special handling requirements.

[4] = solubility of soluble laminarin; type: physicochemical

## laminarin [soluble laminarin]
[1]; ET 10:1
  NK cell killing more active than BEI: 132%
  NK cell killing more active than lentinan: 133%
  stimulated NK cells more cytotoxic than the control: 245%
[1]; ET 50:1
  NK cell killing more active than BEI: 122%
  NK cell killing more active than lentinan: 123%
  stimulated NK cells more cytotoxic than the control: 196%
[1]; ET 100:1
  NK cell killing more active than BEI: 129%
  NK cell killing more active than lentinan: 130%
  stimulated NK cells more cytotoxic than the control: 180%
[2]
  weight of the tumors with respect to the weight of the tumors treated with the control: 28%
[3]
  LD 50: greater than 2000 mg/Kg
[4]; ethanol, 2-propanol and acetone
  solubility in ethanol, 2-propanol and acetone: substantially insoluble
[4]; water
  water-soluble: up to 60 g/l
